Results from patent publication US7041785B1, “B1-bradykinin receptor antagonists and use thereof” (Université de Sherbrooke, priority 1996, dated 2006).
Non-standard residues stand in square brackets, D forms with d. Residues, ends and D or L forms follow the SMILES beside them. d2Nal = N[C@H](Cc1ccc2ccccc2c1)C(=O)O; Hyp = O=C(O)[C@@H]1C[C@@H](O)CN1; dTic = O=C(O)[C@H]1Cc2ccccc2CN1; Ahx = NCCCCCC(=O)O; Sar = CNCC(=O)O

Target: T1, angiotensin-converting enzyme (ACE) from rabbit lungs (Oryctolagus cuniculus, UniProt P12822)
T1 sequence (P12822 34-1310): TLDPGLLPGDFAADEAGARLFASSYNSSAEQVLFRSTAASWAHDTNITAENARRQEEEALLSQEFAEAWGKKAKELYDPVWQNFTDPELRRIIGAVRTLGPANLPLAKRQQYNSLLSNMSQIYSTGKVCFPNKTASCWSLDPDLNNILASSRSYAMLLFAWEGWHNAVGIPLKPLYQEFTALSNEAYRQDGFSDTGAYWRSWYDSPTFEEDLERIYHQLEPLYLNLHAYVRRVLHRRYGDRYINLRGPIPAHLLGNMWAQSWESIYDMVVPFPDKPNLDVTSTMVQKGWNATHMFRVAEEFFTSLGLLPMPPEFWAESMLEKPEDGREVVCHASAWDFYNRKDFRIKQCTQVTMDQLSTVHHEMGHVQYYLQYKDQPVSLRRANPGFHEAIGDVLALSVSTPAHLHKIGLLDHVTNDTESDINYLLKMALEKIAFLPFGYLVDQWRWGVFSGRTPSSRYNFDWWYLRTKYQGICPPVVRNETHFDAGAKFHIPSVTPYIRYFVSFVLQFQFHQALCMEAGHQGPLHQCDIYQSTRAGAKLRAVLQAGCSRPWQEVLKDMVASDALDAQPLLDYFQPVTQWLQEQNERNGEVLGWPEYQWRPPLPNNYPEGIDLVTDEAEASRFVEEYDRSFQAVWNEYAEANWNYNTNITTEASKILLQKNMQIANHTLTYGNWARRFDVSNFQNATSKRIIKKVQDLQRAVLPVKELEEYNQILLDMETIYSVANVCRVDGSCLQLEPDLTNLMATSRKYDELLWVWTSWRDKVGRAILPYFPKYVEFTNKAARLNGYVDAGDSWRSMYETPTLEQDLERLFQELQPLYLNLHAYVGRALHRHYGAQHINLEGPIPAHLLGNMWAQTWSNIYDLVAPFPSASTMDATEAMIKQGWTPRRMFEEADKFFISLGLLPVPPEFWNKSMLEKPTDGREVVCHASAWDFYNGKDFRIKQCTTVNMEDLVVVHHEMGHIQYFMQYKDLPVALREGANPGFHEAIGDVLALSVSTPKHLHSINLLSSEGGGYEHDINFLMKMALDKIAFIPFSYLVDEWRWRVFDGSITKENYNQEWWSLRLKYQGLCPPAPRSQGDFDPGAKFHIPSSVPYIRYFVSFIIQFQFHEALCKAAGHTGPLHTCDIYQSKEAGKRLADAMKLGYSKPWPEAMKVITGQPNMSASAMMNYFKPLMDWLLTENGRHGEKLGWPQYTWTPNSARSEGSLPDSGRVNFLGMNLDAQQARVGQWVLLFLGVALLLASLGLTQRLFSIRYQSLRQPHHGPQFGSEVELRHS
Test: Metabolic degradation by purified angiotensin-converting enzyme, HPLC analysis
Type: in vitro ADME
Parameters: purified angiotensin-converting enzyme (ACE) from rabbit lungs; purchased Sigma, St-Louis, Mo; host or cells: purified from rabbit lungs
Description: The metabolic stability of various kinin-related peptides was evaluated by incubating the peptide in the presence of purified angiotensin-converting enzyme (ACE) from rabbit lungs (purchased from Sigma, St-Louis, Mo.) dissolved in phosphate buffered saline (PBS) (50 mmol/L, pH 7.5 containing 300 mmoL/L NaCl); the final concentration of enzyme was 45 μg/mL. The experimental protocol for the measurement of ACE activity has been described elsewhere^15,16. Briefly, 200 μmol/L of peptides (40 μL) were placed in a PBS buffer and incubated for 5 min at 37EC before adding 8.5 μL of ACE (total volume of the reaction medium; 190 μL). Samples were withdrawn at 30 min intervals, immersed in boiling water for 5 min, then cooled on ice and centrifuged (5 min) before proceeding to analysis of peptides by high pressure liquid chromatography (HPLC). Results of ACE metabolism are expressed in percent of kinin degradation following the incubation (30 min) of kinin substrates with the enzyme.
Pure peptides and metabolic products were analysed by reverse-phas HPLC on a C18 μBondapak column (4.6 mm×25 cm) (Waters) of 10-μm particle size. The peptides and their fragments were eluted at the rate of 2.0 mL/min. with a linear gradient ranging from 5 to 65% of acetonitrile/TFA 0.05%/water over 20 min. at room temperature. The elution positions of these peptides were determined by following the absorbance at 214 nm. For each assay, 50 μL of the reaction medium (treated or not with ACE) were extracted and injected into the column. Concentrations of the peaks products, different from the peaks of the peptide substrate, were estimated using a computer software program (Baseline 810; Waters) that controlled also all the chromatography operations. Isolated metabolites and substrates were collected and identified by Electrospray mass spectrometry (positive mode).

Compound | Less susceptible to ACE proteolytic degradation, relative to Lys(Leu8)desArgBK
CC(C)C[C@H](NC(=O)[C@H]1Cc2ccccc2CN1C(=O)[C@H](CO)NC(=O)[C@H](Cc1ccccc1)NC(=O)CNC(=O)[C@@H]1CCCN1C(=O)[C@@H]1CCCN1C(=O)[C@@H](N)CCCNC(=N)N)C(=O)O [Compound 8, (D-Tic^7, Leu^8)desArg^9BK] (H-RPPGFS[dTic]L-OH; N-terminus and C-terminus assumed) | 2-5 times
CNCC(=O)N[C@@H](CCCNC(=N)N)C(=O)N1CCC[C@H]1C(=O)N1CCC[C@H]1C(=O)NCC(=O)N[C@@H](Cc1ccccc1)C(=O)N[C@@H](CO)C(=O)N1Cc2ccccc2C[C@@H]1C(=O)N[C@@H](CC(C)C)C(=O)O [Compound 9, Sar(D-Tic^7, Leu^8)desArg^9BK] (H-[Sar]RPPGFS[dTic]L-OH; N-terminus and C-terminus assumed) | 2-5 times
CC(C)C[C@H](NC(=O)[C@H]1Cc2ccccc2CN1C(=O)[C@H](CO)NC(=O)[C@H](Cc1ccccc1)NC(=O)CNC(=O)[C@@H]1CCCN1C(=O)[C@@H]1CCCN1C(=O)[C@H](CCCNC(=N)N)NC(=O)[C@H](N)CCCNC(=N)N)C(=O)O [Compound 12, D-Arg(D-Tic^7, Leu^8)desArg^9BK] (H-[dR]RPPGFS[dTic]L-OH; N-terminus and C-terminus assumed) | 2-5 times
CC[C@H](C)[C@H](NC(=O)[C@H]1Cc2ccccc2CN1C(=O)[C@H](CO)NC(=O)[C@H](Cc1ccccc1)NC(=O)CNC(=O)[C@@H]1CCCN1C(=O)[C@@H]1CCCN1C(=O)[C@H](CCCNC(=N)N)NC(=O)[C@H](N)CCCNC(=N)N)C(=O)O [Compound 13, D-Arg(D-Tic^7, Ile^8)desArg^9BK] (H-[dR]RPPGFS[dTic]I-OH; N-terminus and C-terminus assumed) | 2-5 times
CC(C)C[C@H](NC(=O)[C@H]1Cc2ccccc2CN1C(=O)[C@H](CO)NC(=O)[C@H](Cc1ccccc1)NC(=O)CNC(=O)[C@@H]1C[C@@H](O)CN1C(=O)[C@@H]1CCCN1C(=O)[C@H](CCCNC(=N)N)NC(=O)[C@H](N)CCCNC(=N)N)C(=O)O [Compound 17, D-Arg(Hyp^3, D-Tic^7, Leu^8)desArg^9BK] (H-[dR]RP[Hyp]GFS[dTic]L-OH; N-terminus and C-terminus assumed) | 2-5 times
CC(=O)N[C@@H](CCCCN)C(=O)N[C@@H](CCCNC(=N)N)C(=O)N1CCC[C@H]1C(=O)N1CCC[C@H]1C(=O)NCC(=O)N[C@@H](Cc1ccccc1)C(=O)N[C@@H](CO)C(=O)N[C@H](Cc1ccc2ccccc2c1)C(=O)N[C@@H](CC(C)C)C(=O)O [Compound 18, AcLys(D-βNal^7, Leu^8)desArg^9BK] (Ac-KRPPGFS[d2Nal]L-OH; C-terminus assumed) | 2-5 times
CC[C@H](C)[C@H](NC(=O)[C@@H](Cc1ccc2ccccc2c1)NC(=O)[C@H](CO)NC(=O)[C@H](Cc1ccccc1)NC(=O)CNC(=O)[C@@H]1CCCN1C(=O)[C@@H]1CCCN1C(=O)[C@H](CCCN=C(N)N)NC(=O)[C@H](CCCCN)NC(C)=O)C(=O)O [Compound 19, AcLys(D-βNal^7, Ile^8)desArg^9BK] (Ac-KRPPGFS[d2Nal]I-OH) | 2-5 times
CC[C@H](C)[C@H](NC(=O)[C@@H](Cc1ccc2ccccc2c1)NC(=O)[C@H](CO)NC(=O)[C@H](Cc1ccccc1)NC(=O)CNC(=O)[C@@H]1CCCN1C(=O)[C@@H]1CCCN1C(=O)[C@H](CCCNC(=N)N)NC(=O)[C@H](N)CCCNC(=N)N)C(=O)O [Compound 23, D-Arg(D-βNal^7, Ile^8)desArg^9BK] (H-[dR]RPPGFS[d2Nal]I-OH; N-terminus and C-terminus assumed) | 2-5 times
CC(C)C[C@H](NC(=O)[C@@H](Cc1ccc2ccccc2c1)NC(=O)[C@H](CO)NC(=O)[C@H](Cc1ccccc1)NC(=O)CNC(=O)[C@@H]1CCCN1C(=O)[C@@H]1CCCN1C(=O)[C@H](CCCNC(=N)N)NC(=O)[C@H](N)CCCNC(=N)N)C(=O)O [Compound 24, D-Arg(D-βNal^7, Leu^8)desArg^9BK] (H-[dR]RPPGFS[d2Nal]L-OH; N-terminus and C-terminus assumed) | 2-5 times
CC[C@H](C)[C@H](NC(=O)[C@@H](Cc1ccc2ccccc2c1)NC(=O)[C@H](CO)NC(=O)[C@H](Cc1ccccc1)NC(=O)CNC(=O)[C@@H]1CCCN1C(=O)[C@@H]1CCCN1C(=O)[C@H](CCCNC(=N)N)NC(=O)[C@H](N)CCCCN)C(=O)O [Compound 25, D-Lys(D-βNal^7, Ile^8)desArg^9BK] (H-[dK]RPPGFS[d2Nal]I-OH; N-terminus and C-terminus assumed) | 2-5 times
CC[C@H](C)[C@H](NC(=O)[C@@H](Cc1ccc2ccccc2c1)NC(=O)[C@H](CO)NC(=O)[C@H](Cc1ccccc1)NC(=O)CNC(=O)[C@@H]1CCCN1C(=O)[C@@H]1CCCN1C(=O)[C@H](CCCNC(=N)N)NC(=O)CNC)C(=O)O [Compound 26, Sar(D-βNal^7, Ile^8)desArg^9BK] (H-[Sar]RPPGFS[d2Nal]I-OH; N-terminus and C-terminus assumed) | 2-5 times
CC(=O)N[C@@H](Cc1ccc(O)cc1)C(=O)NCCCCCC(=O)N[C@@H](CCCCN)C(=O)N[C@@H](CCCNC(=N)N)C(=O)N1CCC[C@H]1C(=O)N1CCC[C@H]1C(=O)NCC(=O)N[C@@H](Cc1ccccc1)C(=O)N[C@@H](CO)C(=O)N1CCC[C@H]1C(=O)N[C@@H](CC(C)C)C(=O)O [Compound 27, AcTyrεAhxLys(Leu^8)desArg^9BK] | 2-5 times
CNCC(=O)N[C@@H](Cc1ccc(O)cc1)C(=O)NCCCCCC(=O)N[C@@H](CCCCN)C(=O)N[C@@H](CCCNC(=N)N)C(=O)N1CCC[C@H]1C(=O)N1CCC[C@H]1C(=O)NCC(=O)N[C@@H](Cc1ccccc1)C(=O)N[C@@H](CO)C(=O)N1CCC[C@H]1C(=O)N[C@@H](CC(C)C)C(=O)O [Compound 28, SarTyrεAhxLys(Leu^8)desArg^9BK] | 2-5 times
CC[C@H](C)[C@H](NC(=O)[C@@H](Cc1ccc2ccccc2c1)NC(=O)[C@H](CO)NC(=O)[C@H](Cc1ccccc1)NC(=O)CNC(=O)[C@@H]1CCCN1C(=O)[C@@H]1CCCN1C(=O)[C@H](CCCNC(=N)N)NC(=O)[C@H](CCCCN)NC(=O)CCCCCNC(=O)[C@H](Cc1ccc(O)cc1)NC(=O)CNC)C(=O)O [Compound 29, SarTyrεAhxLys(D-βNal^7, Ile^8)desArg^9BK] (H-[Sar]Y[Ahx]KRPPGFS[d2Nal]I-OH; N-terminus and C-terminus assumed) | 2-5 times
